Results on 31 compounds are retold here after patent publication US8686150B2 (Sanofi, priority 2011, dated 2014).

For this assay, the target named is T1, human full-length recombinant PKC βII (Homo sapiens, UniProt P05771).
T1 construct: Active human full-length recombinant PKC βII; purchased Invitrogen GmbH, Darmstadt, Germany
T1 sequence (P05771 1-673 isoform P05771-2): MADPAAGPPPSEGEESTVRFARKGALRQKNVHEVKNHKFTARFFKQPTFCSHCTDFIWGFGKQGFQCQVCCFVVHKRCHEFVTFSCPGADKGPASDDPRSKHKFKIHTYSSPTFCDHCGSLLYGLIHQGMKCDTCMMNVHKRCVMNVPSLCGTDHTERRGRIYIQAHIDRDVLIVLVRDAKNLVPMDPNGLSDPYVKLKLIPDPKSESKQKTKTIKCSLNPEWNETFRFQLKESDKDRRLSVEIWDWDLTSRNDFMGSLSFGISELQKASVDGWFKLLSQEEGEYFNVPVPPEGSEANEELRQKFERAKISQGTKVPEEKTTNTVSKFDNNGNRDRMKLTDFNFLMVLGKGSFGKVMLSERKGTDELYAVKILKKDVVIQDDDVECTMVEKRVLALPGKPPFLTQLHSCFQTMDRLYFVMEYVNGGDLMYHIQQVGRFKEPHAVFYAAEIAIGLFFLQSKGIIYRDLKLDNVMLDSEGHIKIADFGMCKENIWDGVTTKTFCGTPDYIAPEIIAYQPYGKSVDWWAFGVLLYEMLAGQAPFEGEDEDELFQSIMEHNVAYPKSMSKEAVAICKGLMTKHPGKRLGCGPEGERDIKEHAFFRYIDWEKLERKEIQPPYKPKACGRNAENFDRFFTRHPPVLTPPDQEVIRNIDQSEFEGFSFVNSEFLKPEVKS
The assay is described as follows: Determination of PKC βII inhibition (Caliper mobility-shift kinase assay, Fluorescein-RFARKGSLRQKNV peptide substrate). Format: biochemical. Particulars: example compounds at a final concentration of 1.14 μM (±0.15 μM). The procedure, abridged:
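Full-length PKC βII (30 ng/ml in pre-dilution) with PS/DAG/Ca2+ activators, pH 7.4; fluorescein peptide and ATP at 3 μM and 120 μM before mixing. Reaction ran 60 min at 32 °C, was EDTA-stopped, and was read by mobility shift. % inhibition came from product/(substrate+product) peak heights, tested at 1.14 μM final.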
The inhibition is the change of the read-out against control, counted positive when it falls. For the compound `Cc1n[nH]c2nc(-c3ccc(O)c(F)c3)cc(C(=O)N3CCNC[C@H]3Cc3ccccc3)c12` [Example 321, ((R)-2-Benzyl-piperazin-1-yl)-[6-(3-fluoro-4-hydroxy-phenyl)-3-methyl-1H-pyrazolo[3,4-b]pyridin-4-yl]-methanone], the inhibition at 1.14 µM turned out to be 84%.

In the case of `Cc1cc(O)ccc1-c1cc(C(=O)N2CCNC[C@@H]2c2cccc(F)c2)c2c(C)n[nH]c2n1` [Example 141, [(S)-2-(3-Fluoro-phenyl)-piperazin-1-yl]-[6-(4-hydroxy-2-methyl-phenyl)-3-methyl-1H-pyrazolo[3,4-b]pyridin-4-yl]-methanone], the inhibition at 1.14 µM came out at 98%.

Take `CCc1n[nH]c2nc(-c3ccc(O)cc3)cc(C(=O)NC3CNC3)c12` [Example 183, 3-Ethyl-6-(4-hydroxy-phenyl)-1H-pyrazolo[3,4-b]pyridine-4-carboxylic acid azetidin-3-ylamide]: the inhibition at 1.14 µM worked out at 67%.

`COc1ccc(C2CNCCN2C(=O)c2cc(-c3ccc(O)cc3C)nc3[nH]nc(C)c23)cc1` (stereo not shown) [Example 140, [6-(4-Hydroxy-2-methyl-phenyl)-3-methyl-1H-pyrazolo[3,4-b]pyridin-4-yl]-[2-(4-methoxy-phenyl)-piperazin-1-yl]-methanone]: the inhibition at 1.14 µM was determined as 98%.

One may read the % Inhibition as the percentage by which the read-out fell short of the control. In the case of `Cc1n[nH]c2nc(-c3ccc(O)cc3)cc(C(=O)N3CCNC(c4ccccc4)C3)c12` (single isomer, unassigned) [Example 457, [6-(4-Hydroxy-phenyl)-3-methyl-1H-pyrazolo[3,4-b]pyridin-4-yl]-(3-phenyl-piperazin-1-yl)-methanone], the “% Inhibition” value is listed as 63%.

In the case of `CNC1CCN(C(=O)c2cc(-c3ccc(O)cc3)nc3[nH]nc(C(F)(F)F)c23)C1` (stereo not shown) [Example 406, [6-(4-Hydroxy-phenyl)-3-trifluoromethyl-1H-pyrazolo[3,4-b]pyridin-4-yl]-(3-methylamino-pyrrolidin-1-yl)-methanone], the inhibition at 1.14 µM came to 47%.

For `Cc1cc(O)ccc1-c1cc(C(=O)N2CCNCC2(C)C)c2c(C)n[nH]c2n1` [Example 142, (2,2-Dimethyl-piperazin-1-yl)-[6-(4-hydroxy-2-methyl-phenyl)-3-methyl-1H-pyrazolo[3,4-b]pyridin-4-yl]-methanone], the inhibition at 1.14 µM was determined as 98%.

For the compound `Cc1n[nH]c2nc(-c3ccc(O)cc3)cc(C(=O)NC3CCN(Cc4ccccc4)CC3)c12` [Example 392, 6-(4-Hydroxy-phenyl)-3-methyl-1H-pyrazolo[3,4-b]pyridine-4-carboxylic acid (1-benzyl-piperidin-4-yl)-amide], the inhibition at 1.14 µM amounted to 49%.

Consider `Cc1n[nH]c2nc(-c3ccc(O)cc3)cc(C(=O)N3CCN(C(N)=O)CC3)c12` [Example 54, 4-[6-(4-Hydroxy-phenyl)-3-methyl-1H-pyrazolo[3,4-b]pyridine-4-carbonyl]-piperazine-1-carboxylic acid amide], for which the inhibition at 1.14 µM is 41%.

On to `Cc1n[nH]c2nc(-c3ccc(O)cc3)cc(C(=O)N3CCC(N)CC3)c12` [Example 249, (4-Amino-piperidin-1-yl)-[6-(4-hydroxy-phenyl)-3-methyl-1H-pyrazolo[3,4-b]pyridin-4-yl]-methanone], for which the inhibition at 1.14 µM turned out to be 82%.

Turning to `Cc1n[nH]c2nc(-c3ccc(O)c(F)c3)cc(C(=O)NC3CCN(C4CCCCC4)CC3)c12` [Example 360, 6-(3-Fluoro-4-hydroxy-phenyl)-3-methyl-1H-pyrazolo[3,4-b]pyridine-4-carboxylic acid (1-cyclohexyl-piperidin-4-yl)-amide], the inhibition at 1.14 µM turned out to be 52%.

As to `Cc1n[nH]c2nc(-c3ccc(O)cc3)cc(C(=O)NC3CC4CC3CN4)c12` (stereo not shown) [Example 193, 6-(4-Hydroxy-phenyl)-3-methyl-1H-pyrazolo[3,4-b]pyridine-4-carboxylic acid (2-aza-bicyclo[2.2.1]hept-5-yl)-amide], the inhibition at 1.14 µM stood at 94%.

As for `Cc1n[nH]c2nc(-c3ccc(O)c(F)c3)cc(C(=O)N3CCC4(CCNC4)CC3)c12` [Example 341, (2,8-Diaza-spiro[4.5]dec-8-yl)-[6-(3-fluoro-4-hydroxy-phenyl)-3-methyl-1H-pyrazolo[3,4-b]pyridin-4-yl]-methanone], the inhibition at 1.14 µM is 53%.

For the compound `CCc1n[nH]c2nc(-c3ccc(O)cc3)cc(C(=O)N3CC(N)C3)c12` [Example 160, (3-Amino-azetidin-1-yl)-[3-ethyl-6-(4-hydroxy-phenyl)-1H-pyrazolo[3,4-b]pyridin-4-yl]-methanone], the inhibition at 1.14 µM was 49%.

Consider `Cc1ccc([C@@H]2CNC[C@H]2NC(=O)c2cc(-c3ccc(O)cc3)nc3[nH]nc(C)c23)cc1` (relative stereo) [Example 119, 6-(4-Hydroxy-phenyl)-3-methyl-1H-pyrazolo[3,4-b]pyridine-4-carboxylic acid (trans-4-p-tolyl-pyrrolidin-3-yl)-amide], for which the inhibition at 1.14 µM is 91%.

In the case of `Cc1cc(O)ccc1-c1cc(C(=O)N2CCNCC2c2ccc(F)cc2)c2c(C)n[nH]c2n1` (stereo not shown) [Example 138, [2-(4-Fluoro-phenyl)-piperazin-1-yl]-[6-(4-hydroxy-2-methyl-phenyl)-3-methyl-1H-pyrazolo[3,4-b]pyridin-4-yl]-methanone], the inhibition at 1.14 µM was 98%.

Turning to `Cc1n[nH]c2nc(-c3ccc(O)cc3)cc(C(=O)N3CCNCC3c3cc(F)cc(F)c3)c12` (stereo not shown) [Example 87, [2-(3,5-Difluoro-phenyl)-piperazin-1-yl]-[6-(4-hydroxy-phenyl)-3-methyl-1H-pyrazolo[3,4-b]pyridin-4-yl]-methanone], the inhibition at 1.14 µM came to 93%.

As to `Cc1n[nH]c2nc(-c3ccc(O)cc3)cc(C(=O)N3CCNCC3c3ccc(F)c(F)c3)c12` (stereo not shown) [Example 92, [2-(3,4-Difluoro-phenyl)-piperazin-1-yl]-[6-(4-hydroxy-phenyl)-3-methyl-1H-pyrazolo[3,4-b]pyridin-4-yl]-methanone], the inhibition at 1.14 µM turned out to be 95%.

Turning to `Cc1n[nH]c2nc(-c3ccc(O)cc3F)cc(C(=O)N3CCC[C@@H](CN)C3)c12` [Example 59, ((S)-3-Aminomethyl-piperidin-1-yl)-[6-(2-fluoro-4-hydroxy-phenyl)-3-methyl-1H-pyrazolo[3,4-b]pyridin-4-yl]-methanone], the inhibition at 1.14 µM came to 80%.

With `COC(=O)CC1CNCCN1C(=O)c1cc(-c2ccc(O)cc2)nc2[nH]nc(C)c12` (stereo not shown) [Example 197, {1-[6-(4-Hydroxy-phenyl)-3-methyl-1H-pyrazolo[3,4-b]pyridine-4-carbonyl]-piperazin-2-yl}-acetic acid methyl ester], the inhibition at 1.14 µM is 95%.

As to `Cc1n[nH]c2nc(-c3ccc(O)cc3)cc(C(=O)NCC(C)(CN3CCCC3)c3ccccn3)c12` (stereo not shown) [Example 286, 6-(4-Hydroxy-phenyl)-3-methyl-1H-pyrazolo[3,4-b]pyridine-4-carboxylic acid (2-methyl-2-pyridin-2-yl-3-pyrrolidin-1-yl-propyl)-amide], the inhibition at 1.14 µM came to 62%.

Turning to `CCCC[C@H]1CN(C(=O)c2cc(-c3ccc(O)c(F)c3)nc3[nH]nc(C)c23)CCN1` [Example 294, ((S)-3-Butyl-piperazin-1-yl)-[6-(3-fluoro-4-hydroxy-phenyl)-3-methyl-1H-pyrazolo[3,4-b]pyridin-4-yl]-methanone], the inhibition at 1.14 µM was 85%.

Take `Cc1n[nH]c2nc(-c3ccc(O)c(F)c3)cc(C(=O)N(C)C3CCNCC3)c12` [Example 335, 6-(3-Fluoro-4-hydroxy-phenyl)-3-methyl-1H-pyrazolo[3,4-b]pyridine-4-carboxylic acid methyl-piperidin-4-yl-amide]: the inhibition at 1.14 µM was found to be 61%.

`COc1ccccc1C(=O)N1CCN(C(=O)c2cc(-c3ccc(O)cc3)nc3[nH]nc(C)c23)CC1` [Example 381, [6-(4-Hydroxy-phenyl)-3-methyl-1H-pyrazolo[3,4-b]pyridin-4-yl]-[4-(2-methoxy-benzoyl)-piperazin-1-yl]-methanone]: the inhibition at 1.14 µM was determined as 37%.

With `Cc1n[nH]c2nc(-c3ccc(O)cc3)cc(C(=O)N3CCC(N)C3)c12` (stereo not shown) [Example 264, (3-Amino-pyrrolidin-1-yl)-[6-(4-hydroxy-phenyl)-3-methyl-1H-pyrazolo[3,4-b]pyridin-4-yl]-methanone], the inhibition at 1.14 µM was found to be 88%.

For the compound `Cc1n[nH]c2nc(-c3ccc(O)cc3F)cc(C(=O)N3C[C@@H](C)NC[C@@H]3C)c12` [Example 429, ((2S,5R)-2,5-Dimethyl-piperazin-1-yl)-[6-(2-fluoro-4-hydroxy-phenyl)-3-methyl-1H-pyrazolo[3,4-b]pyridin-4-yl]-methanone], the inhibition at 1.14 µM stood at 98%.

`Cc1n[nH]c2nc(-c3ccc(O)cc3)cc(C(=O)N3CCNC[C@@H]3C)c12` [Example 188, [6-(4-Hydroxy-phenyl)-3-methyl-1H-pyrazolo[3,4-b]pyridin-4-yl]-((S)-2-methyl-piperazin-1-yl)-methanone]: the inhibition at 1.14 µM was 105%.

Take `Cc1n[nH]c2nc(-c3ccc(O)cc3F)cc(C(=O)N3CCNC[C@H]3c3ccccc3)c12` [Example 57, [6-(2-Fluoro-4-hydroxy-phenyl)-3-methyl-1H-pyrazolo[3,4-b]pyridin-4-yl]-((R)-2-phenyl-piperazin-1-yl)-methanone]: the inhibition at 1.14 µM stood at 99%.

As for `Cc1n[nH]c2nc(-c3ccc(O)cc3)cc(C(=O)N3CCN(C)CC3)c12` [Example 37, [6-(4-Hydroxy-phenyl)-3-methyl-1H-pyrazolo[3,4-b]pyridin-4-yl]-(4-methyl-piperazin-1-yl)-methanone], the inhibition at 1.14 µM stood at 53%.

With `COC[C@H]1CN(C(=O)c2cc(-c3ccc(O)cc3)nc3[nH]nc(C)c23)CCN1` [Example 212, [6-(4-Hydroxy-phenyl)-3-methyl-1H-pyrazolo[3,4-b]pyridin-4-yl]-((R)-3-methoxymethyl-piperazin-1-yl)-methanone], the inhibition at 1.14 µM was found to be 94%.

As to `Cc1n[nH]c2nc(-c3ccc(O)cc3F)cc(C(=O)N3CC(C)(C)NCC3(C)C)c12` [Example 63, [6-(2-Fluoro-4-hydroxy-phenyl)-3-methyl-1H-pyrazolo[3,4-b]pyridin-4-yl]-(2,2,5,5-tetramethyl-piperazin-1-yl)-methanone], the inhibition at 1.14 µM is 100%.
